Data published in US20250204528A1, “USE OF 2-AMINO-3-INDOLYL BUTYRIC ACID OR 3-METHYLPYRROLIDINE-2-CARBOXYLIC ACID AS PLANT IMMUNITY ELICITOR” (NANJING TIANNONG BIOTECHNOLOGY CO., LTD, priority 2021, published 2025).
Where “and” joins values, the source holds several entries; their conditions need not be identical. Equal entries are not always repeated.

Legend:
Format in all cases: in vivo
[1] = system: ryegrass; experiment: Ryegrass under high temperature stress; design: Heat damage index: scale not given here; conditions: for Heat damage index: 45° C. 12 h, recovery 7 d; for Heat damage index of the ryegrass decreased: vs control group
Protocol: 2-amino-3-indolyl butyric acid was dissolved in distilled water and gradiently diluted with distilled water to obtain solutions of 1 nm, 10 nm, 100 nm and 1,000 nm. A blank control was additionally set. Meanwhile, 0.02% Tween 20 was added as a surfactant. Each concentration was set to 4 replicates while a room temperature blank control was set. Ryegrass seeds were weighed at 0.8 g per pot, sown in a pot with the diameter of 8.5 cm and planted in a greenhouse at 25° C. with the humidity of 60%-70% and the light intensity of 200 μmolm^−2s^−1 (12 h light/12 h dark). After 7 d of growth, the ryegrass was treated by spraying the 2-amino-3-indolyl butyric acid solution on the leaf surfaces twice for 24 h. 24 h after the second spraying, the ryegrass was transferred to an illumination incubator at 45° C. for a high temperature stress treatment for 12 h. The plants were taken out and transferred to the greenhouse at 25° C. for recovery for 7 d. The damage conditions of the plants were observed and counted, and the heat damage grades were calculated. The heat damage grading standard was shown in table 8 and a calculation formula of the heat damage index was as follows.

[2] = system: Pseudomonas syringae PstDC3000; experiment: Induction of Arabidopsis thaliana against infection by Pseudomonas syringae; conditions: for Disease index reduced by / Number of the bacteria in each milligram of the leaves reduced by: compared with blank control; for CFU (mg), number of bacteria in each milligram of the leaves / Disease index: 3 d after inoculation
Protocol: 2-amino-3-indolyl butyric acid was dissolved in sterile water and gradiently diluted with sterile water to obtain solutions of 100 nm, 1,000 nm and 10,000 nm. A blank control was additionally set. Meanwhile, 0.02% Tween 20 was added as a surfactant. Pseudomonas syringae PstDC3000 was coated on an LB plate and cultured at 28° C. for 48 h; monoclonal colonies were selected, inoculated into a 50-mL centrifuge tube containing 2 mL of a culture medium, and cultured on a shaking table at 28° C. and 250 rpm, the change of an OD600 value of the bacterial liquid was monitored every 1-2 h, and the culture of the bacteria was stopped before the OD600 value reached 0.8; 1 mL of the bacterial liquid was transferred to a sterile 1.5-mL centrifuge tube for centrifuging at 8,000 rpm for 2 min and the precipitate was collected; the supernatant was removed, the precipitate was washed 3 times with 10 mM of magnesium chloride and centrifuged, and finally the PstDC3000 was resuspended in 10 mM of magnesium chloride enable the OD600 value to reach […] for late use. Arabidopsis thaliana seeds were soaked in 75% alcohol for 3 min, washed with sterile water for 4 times and seeded in a culture dish containing ½ MS culture medium with 12 seeds sown on each culture dish. The ½ MS culture dish carrying the seeds were vernalized at 4° C. for 3 d to break dormancy and then placed in a culture room at 22° C. and the illumination intensity of 100 μEm^−2s^−1 (16 h light/8 h dark). When the seedlings grew for 2 weeks, 2-amino-3-indolyl butyric acid at different concentrations were slowly poured into the culture dish until the whole Arabidopsis thaliana seedlings were submerged for 2-3 min, then the treatment solution was completely poured from the culture dish, and the treatment was performed once every other 24 h for a total of 2 times. The PstDC3000 suspension (OD600=0.01) was inoculated to the Arabidopsis thaliana leaves by using the same submerging method 24 h after the 2nd treatment, and then the culture dish was sealed by a medical breathable adhesive plaster after the inoculation and placed in the culture room for continuous culture. After 3 d, the number of the bacteria subjected to different treatments was determined, the disease condition of the Arabidopsis thaliana was observed, and the disease indexes were calculated by using the same calculation formula as that in example 2.
Grading standard of diseases caused by PstDC3000 (taking leaves as units): • grade 0: the leaf surfaces were free of disease spots; • grade 1: the area of the disease spots accounted for 0%-10% of that of the whole leaves; • grade 2: the area of the disease spots accounted for 10%-25% of that of the whole leaves; • grade 3: the area of the disease spots accounted for 25%-50% of that of the whole leaves; • grade 4: the area of the disease spots accounted for 50%-75% of that of the whole leaves; and • grade 5: the area of the disease spots accounted for 75%-100% of that of the whole leaves.

[3] = system: wheat powdery mildew; experiment: Field test of inducing wheat against infection by powdery mildew fungi; conditions: 1,000 nm
Protocol: Stems and leaves were sprayed with a 2-amino-3-indolyl butyric acid solution (0.02% by volume of a surfactant Tween 20 was added) at the concentration of 1,000 nm in a filed, sprayed with 0.02% by volume of the surfactant tween 20 as an auxiliary agent control and sprayed with 30 g/mu of ATaiLing as a positive control. Each treatment was repeated three times. The disease grade of the wheat after each treatment was investigated. The disease degree was recorded according to the wheat powdery mildew grading standard in the Guidelines for Field Efficacy Trials of Pesticides (I), and the disease indexes and the relative immune effects were calculated by using the same calculation formula as that of those of the tomato spotted wilt. After the harvested wheat seeds were air-dried, the thousand-grain weights of the wheat seeds after different treatments were measured.
Grading standard of wheat powdery mildew (taking leaves as units): • grade 1: the area of the disease spots accounted 5% or less of that of the whole leaves; • grade 3: the area of the disease spots accounted for 6%-15% of that of the whole leaves; and • grade 5: the area of the disease spots accounted for 16%-25% of that of the whole leaves; and • grade 7: the area of the disease spots accounted for 26%-50% of that of the whole leaves; and • grade 9: the area of the disease spots accounted for 50% or more of that of the whole leaves.

[4] = treatment concentration 1,000 nm
[5] = treatment concentration 10,000 nm
[6] = compared with the auxiliary agent control

Structure (SMILES) | Heat damage index ([1]; 1 nm) | Heat damage index ([1]; 10 nm) | Heat damage index ([1]; 100 nm) | Heat damage index ([1]; 1,000 nm) | Heat damage index of the ryegrass decreased ([1]; 1,000 nm) [%] | Disease index reduced by ([2]; 100 nm) [%] | Number of the bacteria in each milligram of the leaves reduced by ([2]; 100 nm) [%] | Disease index reduced by ([2]; 1,000 nm) [%] | Number of the bacteria in each milligram of the leaves reduced by ([2]; 1,000 nm) [%] | Disease index reduced by ([2]; 10,000 nm) [%] | Number of the bacteria in each milligram of the leaves reduced by ([2]; 10,000 nm) | CFU (mg), number of bacteria in each milligram of the leaves ([2]; treatment concentration 100 nm) | Disease index ([2]; treatment concentration 100 nm) [b] | CFU (mg), number of bacteria in each milligram of the leaves [2, 4] | Disease index [2, 4] | CFU (mg), number of bacteria in each milligram of the leaves [2, 5] | also measured
CC(c1c[nH]c2ccccc12)C(N)C(=O)O (stereo not drawn) | 61 | 57 | 43 | 25 | 65 | 51.25 | 76.75 | 53.92 | 80.97 | 64.42 | 85.039% and 85.03% | 7.44 × 10^5 CFU (mg) | 40.53 ± 1.95 | 6.09 × 10^5 CFU (mg) | 38.31 ± 1.80b | 4.79×10^5 CFU (mg) | Relative immune effect (%) [3]: 40.55%; Thousand-grain weight [3]: 27.39 g; Thousand-grain weight (g) [3]: 27.39 ± 0.29a g; Relative immune effect improved by ([3]; compared with Altailing control group): 12%; Relative immune effect improved by [3, 6]: 40%; Thousand-grain weight increased by [3, 6]: 10.80%; Disease index reduced by ([3]; vs auxiliary agent control group): 40.55%
CC1CCNC1C(=O)O (stereo not drawn) [3-methylpyrrolidine-2-carboxylic acid] | 57 | 50 | 38 | 20 | 68 | 41.13 | 70.78 | 52.47 | 80.90 | 72.69 | 94.92% and 94.90% | 9.41 × 10^5 CFU (mg) | 50.14 ± 1.54 | 6.15 × 10^5 CFU (mg) | 40.48 ± 0.17c | 1.64×10^5 CFU (mg) | –
